One experiment concerns AKT1 (pS473). Kind of experiment: Detection of AKT1 phosphorylation in T24 cells (western blot). The conditions noted are these: T24 cells (oncogenic HRas mutation), 1.25 μmol/10^7 cells, 1 h. Type of experiment: cell-based, human. How it is done: T24 cells were grown to confluency in 6 cm plates. Stock solutions of compounds were prepared in DMSO as before and diluted to the final indicated concentration in 2 mL of OptiMEM media before adding to cells. Cells were incubated at 37° C. for 1 h and then media removed and 1.5 mL of HBSS added to each plate. Cells were detached using a cell scraper, pelleted by centrifugation at 1,000 rcf for 5 min and the pellet processed using MPER™ Mammalian Protein Extraction Reagent (ThermoFisher) with the addition of Halt Protease Inhibitor Cocktail (ThermoFisher) and 1 mM sodium orthovanadate. Samples were resolved by electrophoresis using 4-20% SDS-polyacrylamide gels (Bio-Rad) under denaturing and reducing conditions. Proteins were then electrotransferred to a PVDF membrane (Bio-Rad). The membrane was blocked with 3% BSA and then subjected to immunoblot analysis using AKT/MAPK Signaling Pathway Antibody Cocktail (ab151279) (Abcam) and secondary goat anti-rabbit IgG-HRP (sc-2030) (Santa Cruz Biotechnology). Chemiluminescent detection was performed by using SuperSignal West Pico PLUS chemiluminescent substrate (ThermoFisher) according to the manufacturer's instructions.
Assays were performed in 3 biological replicates. Western blots were analyzed using ImageJl. The intensity of the protein band in each condition was normalized to the intensity of the corresponding loading control (Rab11). […]
A general note: Immunoblotting shows a protein as a band on a membrane.

In another experiment the test system is EGFP-KRas4b. Description: Live-cell imaging of EGFP-KRas4b localization in HeLa cells. In kind it is cell-based. The conditions noted are these: 1.25 μmol/10^7 cells. The protocol:
Imaging was performed on an Axio Observer Z1 inverted microscope (Carl Zeiss Microscopy Gmb, Germany) with Yokogawa CSU-X1 spinning disk confocal unit using a 63×, 1.4 NA oil immersion or 20×, 0.8 NA objective to an ORCA-Flash4.0 V2 Digital CMOS camera (Hamamatsu, Japan). For live cell imaging, an incubation chamber with temperature and CO2 controllers (World Precision Instruments) was utilized. Fluorophores were excited with s diode laser (488 nm; 30 mW). Images were acquired using Zen Blue software (Carl Zeiss) and processed using Image J.^1 HeLa cells were plated at 40,000 cells/well in an 8-well Lab-Tek chamber slide (ThermoFisher) and allowed to adhere overnight. Cells were transfected with mEGFP-HRas or mEGFP-KRas4b using Lipofectamine 2000 (ThermoFisher) according to the manufacturer's protocol. 50 mM stocks of compounds 1 and 2 were prepared by dissolving the solid compound in DMSO containing 100 mM tris(2-S 3 carboxyethyl)phosphine hydrochloride (TCEP) as a preservative. From these stocks, a solution of 200 μM [1 or 2] (with 400 μM TCEP), or 400 μM TCEP was prepared in OptiMEM media. Before imaging, cells were exchanged into OptiMEM media. The diluted solutions were added to the indicated final concentration within individual wells of the chamber slide and cells imaged while maintaining 37° C., 5% CO2 in the incubation chamber. […]

A further experiment concerns the target T1, EGFP-HRas (Homo sapiens, UniProt P01112).
T1 construct: host or cells: HeLa
Description: Live-cell imaging of EGFP-HRas localization in HeLa cells. Type of experiment: cell-based. How it is done:
Imaging was performed on an Axio Observer Z1 inverted microscope (Carl Zeiss Microscopy Gmb, Germany) with Yokogawa CSU-X1 spinning disk confocal unit using a 63×, 1.4 NA oil immersion or 20×, 0.8 NA objective to an ORCA-Flash4.0 V2 Digital CMOS camera (Hamamatsu, Japan). For live cell imaging, an incubation chamber with temperature and CO2 controllers (World Precision Instruments) was utilized. Fluorophores were excited with s diode laser (488 nm; 30 mW). Images were acquired using Zen Blue software (Carl Zeiss) and processed using Image J.^1
HeLa cells were plated at 40,000 cells/well in an 8-well Lab-Tek chamber slide (ThermoFisher) and allowed to adhere overnight. Cells were transfected with mEGFP-HRas or mEGFP-KRas4b using Lipofectamine 2000 (ThermoFisher) according to the manufacturer's protocol. 50 mM stocks of compounds 1 and 2 were prepared by dissolving the solid compound in DMSO containing 100 mM tris(2-S 3 carboxyethyl)phosphine hydrochloride (TCEP) as a preservative. From these stocks, a solution of 200 μM [1 or 2] (with 400 μM TCEP), or 400 μM TCEP was prepared in OptiMEM media. Before imaging, cells were exchanged into OptiMEM media. The diluted solutions were added to the indicated final concentration within individual wells of the chamber slide and cells imaged while maintaining 37° C., 5% CO2 in the incubation chamber. Images were acquired in 6 different locations across a minimum of 2 independent experiments. […] An unpaired t test was performed to determine the significance of the means before and after treatment.

The test system of another experiment is HeLa cells. Description: MS detection of AMD product 4 in HeLa cell lipid extracts. In kind it is cell-based. The settings on record: 200 μM 1 with 400 μM TCEP, 20 min. How it is done: HeLa cells were grown to confluency in two 6 cm plates. Once confluent, media was removed and cells washed 1× with HBSS. Stock solutions were prepared as before. From these stocks, solutions of 200 μM 1 (with 400 μM TCEP) or 400 μM TCEP were prepared in OptiMEM media. To each plate was added 3 mL OptiMEM+400 μM TCEP or OptiMEM+200 μM 1 (with 400 μM TCEP). Cells were incubated at 37° C. for 20 min and then media removed and 3 mL of HBSS added to each plate. Cells were detached using a cell scraper, pelleted by centrifugation at 1,000 rcf for 5 min and the pellet subjected to a lipid extraction using the Bligh and Dyer method.^3 Lipid extracts were analyzed for the presence of the AMD product palmityl-N-L-Cys-Oct (4) using reverse phase chromatography on an HP 1100 LC station to a Thermo LCQdeca-MS running in ESI Positive Ion Mode. MS/MS analysis was performed on the [M+H]^+ peak of 4 (m/z 471) then selected reaction monitoring on the fragmentation peak (m/z 130) (FIG. 9).

T1 sequence (P01112 1-186 limits assumed): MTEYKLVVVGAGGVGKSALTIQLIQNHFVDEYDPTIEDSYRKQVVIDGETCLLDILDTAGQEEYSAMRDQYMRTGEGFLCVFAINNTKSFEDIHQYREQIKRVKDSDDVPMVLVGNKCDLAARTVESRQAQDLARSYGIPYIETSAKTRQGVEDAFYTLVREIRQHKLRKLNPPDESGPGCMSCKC

Regarding `CCCCCCCCNC(=O)[C@@H](N)CS` [compound 1, H2N-L-Cys-Oct], the AKT1 phosphorylation entry with AKT1 (pS473) is reported as “near complete abrogation”. Moreover, the “EGFP-KRas4b protein localization (fluorescence)” value with EGFP-KRas4b is “no change in protein localization”. The “change in plasma membrane protein localization, statistical analysis of several hundred cells” value at EGFP-HRas (EGFP-HRas transfected HeLa cells, before vs after treatment) is “significant change in plasma membrane protein localization”. On EGFP-HRas (HeLa cells, 1.25 μmol/10^7 cells, 20 min), the “EGFP-HRas localization at the plasma membrane (fluorescence)” value is listed as “EGFP-HRas localization at the plasma membrane decreased”. Moreover, the “detection of N-acylated AMD product 4 in lipid extract (LC MS/MS)” value in the experiment with HeLa cells is “detected the expected AMD product, 4”.

Values taken from US20210023065A1, “AMPHIPHILIC THIOL COMPOUNDS AND USES THEREOF” (THE REGENTS OF THE UNIVERSITY OF CALIFORNIA, priority 2018, published 2021).
